This is an account of results in patent publication US6355640B1, “Pyrazolopyridine adenosine antagonists” (Fujisawa Pharmaceutical Co., Ltd., priority 1993, dated 2002).

In general, melting point refers to the temperature of the solid-liquid transition.

The compound `COc1ccc2c(c1)CC[C@@H](O)[C@@H]2n1nc(-c2c(-c3ccccc3)nn3ccccc23)ccc1=O` (relative stereo) [Example 30, trans-3-[2-(6-Hydroxy-2-methoxy-5,6,7,8-tetrahydro-5-naphthyl)-3-oxo-2,3-dihydropyridazin-6-yl]-2-phenylpyrazolo[1,5-a]pyridine] returned a melting point of 146 to 150 °C.
On to `CNC1CCN(C(=O)CC2=C(n3nc(-c4c(-c5ccccc5)nn5ccccc45)ccc3=O)CCCC2)CC1` (hydrate or solvate) [Example 86, 3-[2-{2-(4-Methylaminopiperidinocarbonyl)methyl-1-cyclohexenyl}-3-oxo-2,3-dihydropyridazin-6-yl]-2-phenylpyrazolo[1,5-a]pyridine], for which the melting point was in the range of 101 to 105 °C.
As for `COC(=O)[C@H]1CC[C@@H](n2nc(-c3c(-c4ccccc4)nn4ccccc34)ccc2=O)[C@H](O)C1` (relative stereo) [Example 8, 3-[2-{(1R*,2R*,4S*)-2-Hydroxy-4-methoxycarbonyl-cyclohexyl}-3-oxo-2,3-dihydropyridazin-6-yl]-2-phenylpyrazolo[1,5-a]pyridine], the melting point was 169 to 172 °C.
To `O=C(O)CCC1=C(n2nc(-c3c(-c4ccccc4)nn4ccccc34)ccc2=O)CCCC1` [Example 52, 3-[2-{2-(2-carboxyethyl)-1-cyclohexenyl}-3-oxo-2,3-dihydropyridazin-6-yl]-2-phenylpyrazolo[1,5-a]-pyridine] belongs 184 to 185 °C; to `O=C(CCC1=C(n2nc(-c3c(-c4ccccc4)nn4ccccc34)ccc2=O)CCCC1)OCc1ccccc1` [Example 66, 3-[2-{2-(2-benzyloxycarbonylethyl)-1-cyclohexenyl}-3-oxo-2,3-dihydropyridazin-6-yl]-2-phenylpyrazolo[1,5-a]pyridine], 111 to 113 °C.
As for `CCOC(=O)C[C@@H]1CCCC[C@H]1n1nc(-c2c(-c3ccccc3)nn3ccccc23)ccc1=O` (relative stereo) [Example 33(1), trans-3-[2-(2-Ethoxycarbonylmethylcyclohexyl)-3-oxo-2,3-dihydropyridazin-6-yl]-2-phenylpyrazolo[1,5-a]-pyridine], the melting point was 172 to 173 °C.
Compound `O=C(CC1=C(n2nc(-c3c(-c4ccccc4)nn4ccccc34)ccc2=O)CCCC1)N1CCOCC1` [Example 83, 3-[2-(2-Morpholinocarbonylmethyl-1-cyclohexenyl)-3-oxo-2,3-dihydropyridazin-6-yl]-2-phenylpyrazolo[1,5-a]-pyridine] displayed a melting point of 202 to 204 °C.
The compound `O=c1ccc(-c2c(-c3ccccc3)nn3ccccc23)nn1C1CCCCC1=Cc1nnn[nH]1` (stereo not drawn) [Example 111, 3-[2-{2-(1H-tetrazol-5-yl)methylenecyclohexyl}-3-oxo-2,3-dihydropyridazin-6-yl]-2-phenylpyrazolo[1,5-a]pyridine] had a melting point of 129 to 131 °C.
Take `NC(=O)CC1=C(n2nc(-c3c(-c4ccccc4)nn4ccccc34)ccc2=O)CCCC1` [Example 69, 3-[2-(2-Carbamoylmethyl-1-cyclohexenyl)-3-oxo-2,3-dihydropyridazin-6-yl]-2-phenylpyrazolo[1,5-a]pyridine]: the melting point lay in the range of 204 to 205 °C.
The result for `O=c1ccc(-c2c(-c3ccccc3)nn3ccccc23)nn1[C@H]1CC[C@@H](C(=O)O)CC1` [Example 47(1), cis-3-[2-(4-Carboxycyclohexyl)-3-oxo-2,3-dihydropyridazin-6-yl]-2-phenylpyrazolo[1,5-a]pyridine] reads 296 to 298 °C.
In turn, `O=C(CC1=C(n2nc(-c3c(-c4ccccc4)nn4ccccc34)ccc2=O)CCCC1)N1CCN(C(c2ccccc2)(c2ccccc2)c2ccccc2)CC1` [Example 82, 3-[2-{2-(4-Triphenylmethylpiperazin-1-ylcarbonyl)methyl-1-cyclohexenyl}-3-oxo-2,3-dihydropyridazin-6-yl]-2-phenylpyrazolo[1,5-a]pyridine] showed a melting point of 249.5 to 250.5 °C.
`COC(=O)C[C@H]1CC[C@H](n2nc(-c3c(-c4ccccc4)nn4ccccc34)ccc2=O)C1` (relative stereo) [Example 32, trans-3-[2-(3-Methoxycarbonylmethylcyclopentyl)-3-oxo-2,3-dihydropyridazin-6-yl]-2-phenylpyrazolo[1,5-a]-pyridine] showed a melting point of 105 to 107 °C.
The compound `CCCn1c(-n2nc(-c3c(-c4ccccc4)nn4ccccc34)ccc2=O)cc(=O)n(CC(=O)OC)c1=O` [Example 29, 3-[2-(2,4-Dioxo-3-methoxycarbonylmethyl-1-propyl-1,2,3,4-tetrahydropyrimidin-6-yl)-3-oxo-2,3-dihydropyridazin-6-yl]-2-phenylpyrazolo[1,5-a]pyridine] had a melting point of 191 to 195 °C.
The compound `O=c1ccc(-c2c(-c3ccccc3)nn3ccccc23)nn1[C@@H]1CCCC[C@H]1O` (relative stereo) [Example 5, trans-3-[2-(2-hydroxycyclohexyl)-3-oxo-2,3-dihydropyridazin-6-yl]-2-phenylpyrazolo[1,5-a]-pyridine] displayed a melting point of 229 to 230 °C.
Compound `COc1ccc(-n2nc(-c3c(-c4ccccc4)nn4ccccc34)ccc2=O)cc1` [Example 100, 3-[2-(4-Methoxyphenyl)-3-oxo-2,3-dihydropyridazin-6-yl]-2-phenylpyrazolo[1,5-a]pyridine] displayed a melting point of 158 °C.
With `O=C(O)CON=C1CCCCC1n1nc(-c2c(-c3ccccc3)nn3ccccc23)ccc1=O` (stereo not drawn) [Example 57, 3-[2-(2-Carboxymethoxyiminocyclohexyl)-3-oxo-2,3-dihydropyridazin-6-yl]-2-phenylpyrazolo[1,5-a]pyridine], the melting point was 208 °C (dec.).
To `O=C(O)CC1=C(n2nc(-c3c(-c4ccccc4)nn4ccccc34)ccc2=O)CCCCC1` (hydrate or solvate) [Example 19, 3-[2-(2-carboxymethyl-1-cycloheptenyl)-3-oxo-2,3-dihydropyridazin-6-yl]-2-phenylpyrazolo[1,5-a]-pyridine] belongs 171 to 172 °C; to `O=C(CC1=C(n2nc(-c3c(-c4ccccc4)nn4ccccc34)ccc2=O)CCCC1)N1CCCC1` [Example 84, 3-[2-{2-(Pyrrolidin-1-ylcarbonyl)methyl-1-cyclohexenyl}-3-oxo-2,3-dihydropyridazin-6-yl]-2-phenylpyrazolo[1,5-a]pyridine], 178 to 179 °C.
In the case of `O=C(O)[C@H]1CCC(=O)[C@@H](n2nc(-c3c(-c4ccccc4)nn4ccccc34)ccc2=O)C1` (relative stereo) (hydrate or solvate) [Example 17, cis-3-[2-(5-Carboxy-2-oxocyclohexyl)-3-oxo-2,3-dihydropyridazin-6-yl]-2-phenylpyrazolo[1,5-a]pyridine], the melting point fell in the range of 155 to 165 °C.
Consider `COC(=O)[C@@H]1CC[C@H](n2nc(-c3c(-c4ccccc4)nn4ccccc34)ccc2=O)C(=O)C1` (relative stereo) [Example 10, cis-3-[2-(4-Methoxycarbonyl-2-oxocyclohexyl)-3-oxo-2,3-dihydropyridazin-6-yl]-2-phenylpyrazolo[1,5-a]pyridine], for which the melting point was in the range of 164 to 165 °C.
`O=c1ccc(-c2c(-c3ccccc3)nn3ccccc23)nn1C1CCCCC1` [Example 1, 3-(2-cyclohexyl-3-oxo-2,3-dihydropyridazin-6-yl)-2-phenylpyrazolo[1,5-a]pyridine]: the melting point was in the range of 115 to 117 °C.
`O=c1ccc(-c2c(-c3ccccc3)nn3ccccc23)nn1[C@@H]1CCCC[C@@H]1O` (relative stereo) [Example 4, cis-3-[2-(2-hydroxycyclohexyl)-3-oxo-2,3-dihydropyridazin-6-yl]-2-phenylpyrazolo[1,5-a]pyridine]: the melting point fell in the range of 195 to 197 °C.
`O=C(O)C[C@@H]1CCCC[C@H]1n1nc(-c2c(-c3ccccc3)nn3ccccc23)ccc1=O` (relative stereo) [Example 39, trans-3-[2-(2-Carboxymethylcyclohexyl)-3-oxo-2,3-dihydropyridazin-6-yl]-2-phenylpyrazolo[1,5-a]pyridine] gave a melting point of 238 to 240 °C.
In turn, `CCOC(=O)C=C1CCC(n2nc(-c3c(-c4ccccc4)nn4ccccc34)ccc2=O)CC1` (stereo not drawn) [Example 94, 3-[2-(4-ethoxycarbonylmethylenecyclohexyl)-3-oxo-2,3-dihydropyridazin-6-yl]-2-phenylpyrazolo[1,5-a]-pyridine] had a melting point of 166 to 168 °C.
In turn, `O=C(CC1=C(n2nc(-c3c(-c4ccccc4)nn4ccccc34)ccc2=O)CCCC1)N1CCNCC1` [Example 113, 3-[2-{2-(piperazin-1-ylcarbonyl)methyl-1-cyclohexenyl}-3-oxo-2,3-dihydropyridazin-6-yl]-2-phenylpyrazolo[1,5-a]pyridine] registered a melting point of 208.5 to 209 °C.
The compound `N#CC1CCCCC1n1nc(-c2c(-c3ccccc3)nn3ccccc23)ccc1=O` (stereo not drawn) [Example 108, 3-[2-(2-cyanocyclohexyl)-3-oxo-2,3-dihydropyridazin-6-yl]-2-phenylpyrazolo[1,5-a]pyridine] displayed a melting point of 214 °C.
For the compound `O=C1CCCCC1Oc1ccc(-c2c(-c3ccccc3)nn3ccccc23)nn1` (single isomer, unassigned) [Example 2 (less polar compound), 3-[3-(2-Oxocyclohexyl)oxypyridazin-6-yl]-2-phenylpyrazolo[1,5-a]pyridine], the melting point lay within 214 to 216 °C.
Compound `O=C(O)C=C1CCC(n2nc(-c3c(-c4ccccc4)nn4ccccc34)ccc2=O)CC1` (stereo not drawn) [Example 51, 3-[2-(4-Carboxymethylenecyclohexyl)-3-oxo-2,3-dihydropyridazin-6-yl]-2-phenylpyrazolo[1,5-a]pyridine] displayed a melting point of 188 to 190 °C.
As to `O=C1CCCCC1n1nc(-c2c(-c3ccccc3)nn3ccccc23)ccc1=O` (single isomer, unassigned) [Example 2 (more polar compound), 3-[2-(2-oxocyclohexyl)-3-oxo-2,3-dihydropyridazin-6-yl]-2-phenylpyrazolo[1,5-a]pyridine], the melting point lay within 166 to 168 °C.
For `CCCn1c(-n2nc(-c3c(-c4ccccc4)nn4ccccc34)ccc2=O)cc(=O)n(CCC)c1=O` [Example 27, 3-[2-(1,3-Dipropyl-2,4-dioxo-1,2,3,4-tetrahydropyrimidin-6-yl)-3-oxo-2,3-dihydropyridazin-6-yl]-2-phenylpyrazolo[1,5-a]pyridine], the melting point was determined as 155.3 °C.
